We go through 20 compounds from PubChem BioAssay (NCI).

“And” between values parts separate entries of the source, which are not always exact repeats. Equal values may be shown once.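 Step 1: Grow cells in 96-well plates. Step 2: Expose to compound for 48 hours at 5 concentrations. Step 3: Interpolate endpoints linearly; if unreached, use highest concentration. GI50: concentration for 50% inhibition of growth. Definition used: TGI = concentration required for complete inhibition of growth.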

Assay in all cases: NCI anticancer screen, dose series, 48 h
Assay [1] relates to DU-145 prostate.
Assay [2] relates to HOP-92 NSCLC.
For assay [3], the system named is MCF7 breast.
Assay [4] relates to MDA-N.
Assay [5] deals with NCI-H522 lung.
Assay [6] relates to NCI/ADR-RES ovarian.
Assay [7] concerns OVCAR-3 ovarian.
For assay [8], the system named is OVCAR-5 ovarian.
The subject of assay [9] is RXF 393 renal.
Assay [10] relates to NCI-H226 lung.

On to `COc1ccccc1N=Nc1c(O)ccc2ccccc12`, for which the TGI in assay [1] was above 100 µM; in [2], 56.3 µM and 42.5 µM; in assay [3], above 100 µM; in [4], above 100 µM; in assay [5], above 100 µM; in [6], above 100 µM. The TGI is above 100 µM in [7]; above 100 µM in assay [8]; 35.3 µM and 59.7 µM in assay [9]. Besides, the GI50 in assay [5] was > 100 µM and 41.8 µM; in [9], 12.3 µM and 28.7 µM.

For the compound `CCCCCCCCCCCC1=C(O)C(=O)C(CC2=C(O)C(=O)C(CCCCCCCCCCC)=C(O)C2=O)=C(O)C1=O`, the TGI was above 100 µM in assay [1]; 55.2 µM in [2]; above 100 µM in assay [3]; above 100 µM in [4]; above 100 µM in assay [10]; above 100 µM in assay [5]. In addition, the TGI in assay [6] is above 100 µM; in assay [8], above 100 µM; in [9], 25.2 µM.

Turning to `O=C(Nc1cccc2ccccc12)c1cc2ccccc2oc1=O`, the TGI was above 100 µM in assay [1]; above 100 µM in assay [2]; above 100 µM in assay [3]; above 100 µM in assay [4]; 54.4 µM in [10]; above 100 µM in assay [6]. Besides, the TGI in assay [7], in [8] and in [9] was above 100 µM each time.

As for `CCCCCCCCCCCCCCCCNc1nc(=O)n(C2OC(C)C(O)C2O)cc1F` (stereo unspecified), the TGI is 36 µM in assay [1]; 45.7 µM in [2]; 33 µM in assay [3]; 39.3 µM in assay [4]; 40.6 µM in assay [10]; 39 µM in [5]. For the same compound, the TGI in assay [6] was found to be 43.8 µM; in assay [7], 34.8 µM; in assay [8] it was 36.7 µM; in assay [9] it was 44.8 µM.

In the case of `C/C(=N\NC(=S)NC(C)(C)C)c1nc2ncccc2[nH]1`, the TGI in assay [1] was above 57.5 µM; in assay [2] it was 42.9 µM; in assay [3] it was above 100 µM; in assay [4], above 100 µM; in assay [10], 13.9 µM; in assay [5] it was 51.2 µM. Further, the TGI in [6] was above 84.4 µM; in assay [7] it was above 100 µM; in assay [8], above 21.7 µM; in assay [9], above 100 µM.

On to `NC(=O)CSc1nc2ccccc2c(=O)n1N`, for which the TGI in assay [1], in assay [2], in [3], in assay [4], in assay [10] and in assay [5] was above 100 µM each time. The TGI in assay [6], in [7], in assay [8] and in assay [9] was above 100 µM in each case.

As to `CC[C@]1(c2ccc3c(c2)OCO3)C=[N+]([O-])O[C@H](OC2CCCC2(c2ccccc2)c2ccccc2)[C@@H]1OC(C)=O` (stereo partly specified), the TGI in assay [1] is 7.44 µM; in assay [2] it was 76.1 µM; in [3], above 24.1 µM; in assay [4], above 30.2 µM; in assay [10], 22.7 µM; in assay [5] it was 4.78 µM. Besides, the TGI is 4.88 µM in [6], 3.42 µM in [7], above 28.3 µM in assay [8] and 2.63 µM in assay [9].

Take `CN(Cc1cnc2nc(N)nc(N)c2n1)c1ccc(C(=O)NC(CCC(=O)O)C(=O)O)c2ccccc12` (stereo unspecified): the TGI in assay [1] is above 1000 µM; in assay [2], above 1000 µM; in assay [3], above 1000 µM; in [4] it was above 1000 µM; in [10] it was above 1000 µM; in assay [5], 7.12 µM. Moreover, the TGI in [6], in assay [8] and in assay [9] was above 1000 µM throughout. The GI50 in assay [2] was above 1000 µM; in assay [10], above 1000 µM; in [5], 0.0826 µM; in assay [7], 32.9 µM; in assay [9] it was above 1000 µM.

On to `O=[N+]([O-])/C=C/c1cc(Cl)c(/C=C/[N+](=O)[O-])cc1Cl`, for which the TGI is 7.96 µM in assay [1]; 6.77 µM in assay [2]; above 33.2 µM in [3]; 8.19 µM in assay [4]; 5.4 µM in [10]; above 25 µM in assay [6]. Also, the TGI in assay [7] was found to be 5.04 µM; in [9], 3.14 µM.

Regarding `Cc1ccc(S(=O)(=O)NC(=O)Nc2ccc(C(=O)O)cc2)cc1`, the TGI in [1], in assay [2], in [3], in [4], in [5] and in [6] was above 100 µM in each case. The TGI in assay [8] and in assay [9] was above 100 µM throughout.

As for `O=C1Nc2noc(=O)nc2NO1`, the TGI in assay [1], in assay [2], in assay [3], in [4], in [10] and in assay [5] was above 200 µM each time. For the same compound, the TGI in assay [6], in assay [7], in [8] and in [9] was above 200 µM in each case.

As for `C/C(=N/NC(=S)Nc1ccc(C)cc1)c1ccccn1`, the TGI worked out at 10.4 µM in [1]; 12.5 µM in assay [2]; 16.6 µM in assay [3]; 13.8 µM in assay [4]; 2.6 µM in [10]; 12 µM in assay [5]. For the same compound, the TGI in [6] turned out to be 1.34 µM; in assay [7] it was 12.2 µM; in assay [8] it was 9.55 µM; in [9] it was 11 µM.

In the case of `COc1ccc2oc(=O)c(-c3cc4c(c(C)n3)c(=O)oc3ccc(OC)cc34)cc2c1`, the TGI in assay [1], in assay [2], in assay [3], in assay [4], in assay [10] and in [5] was above 100 µM in each case. Also, the TGI in assay [6], in assay [7] and in [9] was above 100 µM in each case.

With `CC(C)(NO)/C(=N\O)c1ccccc1`, the TGI in assay [1], in assay [2], in [3], in [4], in [10] and in [5] was above 10 µM throughout. In addition, the TGI in assay [6], in assay [7], in assay [8] and in assay [9] was above 10 µM in each case.

In the case of `Cc1nc(C(=Nc2ccc(Br)cc2)Nn2cnnc2)no1`, the TGI in assay [1], in [2], in assay [3], in assay [4], in [5] and in assay [6] was above 100 µM each time. In addition, the TGI in [7], in [8] and in assay [9] was above 100 µM throughout.

Take `CCCCCCCCCCCCOCC(COP(=O)(O)OCCN=[N+]=[N-])OC(=O)CCCCCCCCCCC` (stereo unspecified): the TGI in assay [1], in [2], in [3], in assay [4], in assay [5] and in [6] was above 100 µM in each case. Moreover, the TGI in assay [7], in [8] and in assay [9] was above 100 µM throughout.

For the compound `Cc1cc2nc(N3C(=O)/C(=C/Cc4ccco4)N=C3c3ccccc3)sc2cc1C`, the TGI in [1] was above 100 µM; in assay [2] it was 60.5 µM; in assay [3], 40.4 µM; in assay [4] it was 30 µM; in [6], above 100 µM; in assay [7], above 100 µM. The figures for the TGI in assay [8] and in assay [9] were above 100 µM and 59.1 µM, respectively.

`COC(=O)Nc1cc(OCCCOC(C)=O)c2[nH]c(C(=O)OC)cc2c1C[C@H](O)CO`: the TGI was above 100 µM in assay [1]; above 100 µM in [2]; above 100 µM in assay [3]; above 100 µM in assay [4]; above 100 µM in [10]; 26.9 µM in assay [5]. Also, the TGI in assay [6], in [7] and in assay [8] was above 100 µM in each case.

With `O=C1/C(=C\c2cccc(Oc3ccccc3)c2)SC(c2ccccc2)N1c1cc(Cl)ccc1Cl` (stereo unspecified), the TGI in [1] was above 100 µM; in [2], 74.4 µM; in [3] it was above 100 µM; in [4] it was 45.5 µM; in [5] it was 53 µM; in assay [6], above 100 µM. In addition, the TGI in [7] is 77.4 µM; in [8], above 100 µM; in assay [9] it was 76.5 µM.

As to `O=C(OCCN=c1c2ccccc2ccc2ccccc12)c1cc([N+](=O)[O-])cc([N+](=O)[O-])c1`, the TGI in [1], in assay [2], in [3], in assay [4], in assay [10] and in assay [6] was above 100 µM throughout. Besides, the TGI in [7], in assay [8] and in assay [9] was above 100 µM each time.
